Results taken from the Kinase Knowledgebase extract (Sharma et al. 2016).
Where “and” joins values, the source holds several entries; their conditions need not be identical. Equal values may be shown once.

The compounds below were run against EGFR (murine) (UniProt P00533). Conditions: nih3t3/c7.
EGFR (murine), sequence (P00533 whole entry, looked up): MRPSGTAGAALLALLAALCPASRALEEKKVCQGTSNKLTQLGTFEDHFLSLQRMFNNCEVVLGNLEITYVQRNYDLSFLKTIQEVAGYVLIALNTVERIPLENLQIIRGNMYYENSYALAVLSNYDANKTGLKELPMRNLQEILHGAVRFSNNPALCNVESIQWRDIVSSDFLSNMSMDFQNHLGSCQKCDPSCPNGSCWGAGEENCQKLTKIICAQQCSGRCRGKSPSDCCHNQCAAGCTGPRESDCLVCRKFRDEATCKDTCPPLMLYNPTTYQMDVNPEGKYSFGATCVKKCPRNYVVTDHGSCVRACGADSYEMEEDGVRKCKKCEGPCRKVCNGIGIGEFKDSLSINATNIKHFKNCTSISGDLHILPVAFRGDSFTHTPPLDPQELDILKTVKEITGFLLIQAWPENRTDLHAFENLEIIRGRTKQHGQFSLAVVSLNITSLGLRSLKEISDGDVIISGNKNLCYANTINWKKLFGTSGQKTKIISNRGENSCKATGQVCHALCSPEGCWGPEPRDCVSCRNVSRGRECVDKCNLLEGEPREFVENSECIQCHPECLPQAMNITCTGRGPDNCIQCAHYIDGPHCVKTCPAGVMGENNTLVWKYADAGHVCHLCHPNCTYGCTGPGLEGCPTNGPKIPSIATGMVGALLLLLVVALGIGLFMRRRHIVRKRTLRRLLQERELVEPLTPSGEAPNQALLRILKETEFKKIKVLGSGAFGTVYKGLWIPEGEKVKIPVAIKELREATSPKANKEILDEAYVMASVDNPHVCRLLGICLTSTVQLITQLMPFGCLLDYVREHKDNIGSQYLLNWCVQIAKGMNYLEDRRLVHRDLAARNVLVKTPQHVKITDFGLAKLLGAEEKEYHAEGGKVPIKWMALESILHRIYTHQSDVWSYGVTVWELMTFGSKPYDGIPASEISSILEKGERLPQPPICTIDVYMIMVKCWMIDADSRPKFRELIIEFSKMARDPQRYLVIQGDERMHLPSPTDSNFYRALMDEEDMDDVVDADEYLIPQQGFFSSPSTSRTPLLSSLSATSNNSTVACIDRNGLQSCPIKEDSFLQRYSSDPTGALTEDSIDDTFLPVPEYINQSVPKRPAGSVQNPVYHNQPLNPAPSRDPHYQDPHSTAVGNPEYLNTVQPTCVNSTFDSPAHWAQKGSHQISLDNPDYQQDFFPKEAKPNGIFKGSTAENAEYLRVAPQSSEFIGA

| SMILES | IC50 |
| --- | --- |
| COC(=O)c1ccc(NCc2cc(O)ccc2O)cc1 | 43 µM |
| CC(=O)C1=C(c2ccccc2)[NH+]([O-])c2ccccc2[NH+]1[O-] (stereo not drawn) | > 100 µM |
| CC(C)(C)c1cc(/C=C(\C#N)c2c(C#N)c(N)nn2-c2ccccc2)cc(C(C)(C)C)c1O | 25 µM |
| N#CC(C#N)=CNNc1cccc(Cl)c1 | > 50 µM |
| Cc1ccc2ncnc(Nc3cccc(C(F)(F)F)c3)c2c1 | 0.86 µM |
| Cc1cc2nc(CSCCCSCc3nc4cc(C)c(C)cc4nc3-c3ccccc3)c(-c3ccccc3)nc2cc1C | 12.5 µM |
| Clc1cccc(Nc2ncnc3ccccc23)c1 | 0.16 µM and 0.2 µM |
| Cc1ccc2ncnc(Nc3cccc(Cl)c3)c2c1 | 0.06 µM |
| CC(C)(C)c1cc(/C=C(\C#N)S(=O)(=O)/C(C#N)=C/c2cc(C(C)(C)C)c(O)c(C(C)(C)C)c2)cc(C(C)(C)C)c1O | > 100 µM |
| N#C/C(=C\c1cc(O)c(O)c(Br)c1)C(=O)NCCCNC(=O)/C(C#N)=C/c1cc(O)c(O)c(Br)c1 | 31.5 µM |
| CC(=O)ON=C(Cl)C1=C[NH+]([O-])c2cc(Cl)ccc2[NH+]1[O-] (stereo not drawn) | > 50 µM |

These compounds were tested against EGFR (human) (UniProt P00533). Conditions: a431.
EGFR (human), sequence (P00533 whole entry, looked up): as above

| SMILES | IC50 |
| --- | --- |
| Clc1cccc(Nc2ncnc3ccccc23)c1 | 20 µM |
| Cc1ccc2ncnc(Nc3cccc(Cl)c3)c2c1 | 10 µM and 20 µM |
